This note sets out measurements from patent US20220195384A1, “COMPOSITION FOR PROMOTING PRODUCTION OF STEM CELL-DERIVED EXOSOMES AND INCREASING STEMNESS” (BREXOGEN INC., priority 2019, published 2022).

Holding throughout (type): cell-based
Experiment [1] concerns primary umbilical cord-derived mesenchymal stem cells. Put plainly: Content of exosomal protein (Bradford analysis, 595 nm). The conditions noted are these: 10 ng/mL interferon-γ pretreatment one week. The protocol:
(§1) In a culture medium [high glucose DMEM (Gibco, Cat no. 11995-065); 10% fetal bovine serum (HyClone), 1% MEM non-essential amino acids solution (100×) (Gibco, Cat no. 11140-050)] containing 20 nM of exendin-4, primary umbilical cord-derived mesenchymal stem cells (ATCC No. PCS-500-010; Lot No. 63822428) were cultured for one week.
(§2) After completion of culturing, the mesenchymal stem cells pretreated with exendin-4 were washed and additionally cultured for 72 hours in a culture medium supplemented with 10% fetal bovine serum (FBS) free of exosomes. The reason of employing exosome-free FBS was to prevent FBS-derived exosomes other than those secreted from the cells from being incorporated because generally used FBS contained a large amount of exosomes derived from bovine serum.
(§3) After 72 hours of culturing, the culture medium in which the pretreated mesenchymal stem cells were cultured was taken and centrifuged at 300×g for 10 min to remove residual cells and cell debris. The supernatant was filtered through a 0.22 μm filter, followed by centrifugation at 10,000×g and 4° C. for 70 min in a high-speed centrifuge. The supernatant thus obtained was subjected again to ultracentrifugation at 100,000×g and 4° C. for 90 min. The exosomes obtained as a pellet were diluted in PBS (phosphate buffered saline) before use in the following experiments.
(§4) In a culture medium [high glucose DMEM (Gibco, Cat no. 11995-065); 10% fetal bovine serum (HyClone), 1% MEM non-essential amino acids solution (100×) (Gibco, Cat no. 11140-050)] containing 10 nM of PMA, primary umbilical cord-derived mesenchymal stem cells (ATCC No. PCS-500-010; Lot No. 63822428) were cultured for one week.
(§5) After completion of culturing, the mesenchymal stem cells pretreated with PMA were washed and additionally cultured for 72 hours in a culture medium supplemented with 10% fetal bovine serum (FBS) free of exosomes. The reason of employing exosome-free FBS was to prevent FBS-derived exosomes other than those secreted from the cells from being incorporated because generally used FBS contained a large amount of exosomes derived from bovine serum.
(§6) In a culture medium [high glucose DMEM (Gibco, Cat no. 11995-065); 10% fetal bovine serum (HyClone), 1% MEM non-essential amino acids solution (100×) (Gibco, Cat no. 11140-050)] containing 10 ng/mL interferon-γ, primary umbilical cord-derived mesenchymal stem cells (ATCC No. PCS-500-010; Lot No. 63822428) were cultured for one week.
(§7) After completion of culturing, the mesenchymal stem cells pretreated with interferon-γ were washed and additionally cultured for 72 hours in a culture medium supplemented with 10% fetal bovine serum (FBS) free of exosomes. The reason of employing exosome-free FBS was to prevent FBS-derived exosomes other than those secreted from the cells from being incorporated because generally used FBS contained a large amount of exosomes derived from bovine serum.
(§8) In a culture medium [high glucose DMEM (Gibco, Cat no. 11995-065); 10% fetal bovine serum (HyClone), 1% MEM non-essential amino acids solution (100×) (Gibco, Cat no. 11140-050)] containing 10 μM of tetrandrine, primary umbilical cord-derived mesenchymal stem cells (ATCC No. PCS-500-010; Lot No. 63822428) were cultured for one week.
(§9) After completion of culturing, the mesenchymal stem cells pretreated with tetrandrine were washed and additionally cultured for 72 hours in a culture medium supplemented with 10% fetal bovine serum (FBS) free of exosomes. The reason of employing exosome-free FBS was to prevent FBS-derived exosomes other than those secreted from the cells from being incorporated because generally used FBS contained a large amount of exosomes derived from bovine serum. […]

Experiment [2] shares this test system. Briefly: Stem cell proliferation (CCK, absorbance 450 nm) after pretreatment. The conditions noted are these: 10 ng/mL interferon-γ pretreatment one week; 24 h culture, CCK 4 h. The protocol: as §1, §4, §6, §8
In a culture medium [high glucose DMEM (Gibco, Cat no. 11995-065); 10% fetal bovine serum (HyClone), 1% MEM non-essential amino acids solution (100×) (Gibco, Cat no. 11140-050)] containing 10 μg/mL hyaluronic acid, primary umbilical cord-derived mesenchymal stem cells (ATCC No. PCS-500-010; Lot No. 63822428) were cultured for one week.
In a culture medium [high glucose DMEM (Gibco, Cat no. 11995-065); 10% fetal bovine serum (HyClone), 1% MEM non-essential amino acids solution (100×) (Gibco, Cat no. 11140-050)] containing 30 nM of substance P, primary umbilical cord-derived mesenchymal stem cells (ATCC No. PCS-500-010; Lot No. 63822428) were cultured for one week.
In a culture medium [high glucose DMEM (Gibco, Cat no. 11995-065); 10% fetal bovine serum (HyClone), 1% MEM non-essential amino acids solution (100×) (Gibco, Cat no. 11140-050)] containing 10 nM of resveratrol, primary umbilical cord-derived mesenchymal stem cells (ATCC No. PCS-500-010; Lot No. 63822428) were cultured for one week.
In a culture medium [high glucose DMEM (Gibco, Cat no. 11995-065); 10% fetal bovine serum (HyClone), 1% MEM non-essential amino acids solution (100×) (Gibco, Cat no. 11140-050)] containing 10 μM of lanifibranor, primary umbilical cord-derived mesenchymal stem cells (ATCC No. PCS-500-010; Lot No. 63822428) were cultured for one week.
(§10) Mesenchymal stem cells and the exendin-4-pretreated mesenchymal stem cells of the Example were each seeded at a density of 3,000 cells/well into 96-well plates containing 100 μL of a culture medium [high glucose DMEM (Gibco, Cat no. 11995-065), 10% fetal bovine serum (HyClone), 1% MEM non-essential amino acids solution (100×) (Gibco, Cat no. 11140-050)] per well and cultured for 24 hours in a CO2 incubator. Then, CCK solution (10 μL/well) was added, and incubation was continued for 4 hours in the CO2 incubator, followed by reading absorbance at a wavelength of 450 nm (420-480 nm) to determine proliferation.
as §10, with “PMA-pretreated” for “exendin-4-pretreated”, “proliferation. […]” for “proliferation.”

Experiment [3] has the same test system. Put plainly: Content of exosomal RNA (NanoDrop). The following applies: 10 ng/mL interferon-γ pretreatment one week. The protocol:
as §1, §2, §3, §4, §5, §6, §7, §8, §9

For experiment [4] the test system is unchanged. Briefly: Number of exosomes by nanoparticle tracking assay (NanoSight NS300). The following applies: 10 ng/mL interferon-γ pretreatment one week. On the procedure:
as §1, §2, §3, §4, §5, §6, §7, §8, §9

Take “interferon-γ [IFNγ MSC-Exo = exosomes of IFNγ-treated mesenchymal stem cells]”: the “fold greater exosomal proteins than non-treated mesenchymal stem cells” value in experiment [1] was “about 6.2 fold”. The “Exosomal protein, yield per 10^6 cells” value in experiment [1] (then 72 h exosome-free FBS medium, non-treated 2.0) is 12.4 ug. In experiment [2], the “increase in proliferation relative to non-treated mesenchymal stem cells” value was “about 242%” and the “proliferation ratio relative to non-treated mesenchymal stem cells (1)” value was determined as 2.42. The “fold greater exosomal RNA than non-treated mesenchymal stem cells” value in experiment [3] is given as “about 5.0 fold”. The “Exosomal RNA, yield per 10^6 cells” value in experiment [3] (then 72 h exosome-free FBS medium, non-treated 31.0) worked out at 155.0 ng. Also, in experiment [4], the “fold more exosomes than non-treated mesenchymal stem cells” value is listed as “about 6.7 fold”. In experiment [4] (then 72 h exosome-free FBS medium, non-treated 2.3), the “No. of exosome particles, yield per 10^6 cells” value is given as 15.4 10^9.
